The values that follow come from BindingDB's records for doi:10.1021/acs.jmedchem.3c00363 (University of Regensburg, 2023).

For this assay, the target named is Neuropeptide Y receptor type 1 (Homo sapiens) (UniProt P25929). The assay is described as follows: Displacement of [3H]UR-MK299 from human Y1 receptor expressed in human SK-N-MC cells measured after 90 mins by MicroBeta plate counter based competition binding assay. For orientation: In a radioligand displacement assay an active substance lowers the binding of a labelled ligand.

Starred links: 1 amine or outer side, 2 acyl side, 3 side chain; linkers in the order of their positions; H or OH if unused. Non-standard residues stand in square brackets, D forms with d. Residues, ends and D or L forms follow the SMILES beside them. X1 = O=C([C@@H]1C[C@@H](c2ccccc2)[C@@H]1CN[*:1])[*:2]; X2 = O=C([C@H]1C[C@H](c2ccccc2)[C@H]1CN[*:1])[*:2]

Sequence of Neuropeptide Y receptor type 1 (Homo sapiens) (P25929 whole entry, looked up): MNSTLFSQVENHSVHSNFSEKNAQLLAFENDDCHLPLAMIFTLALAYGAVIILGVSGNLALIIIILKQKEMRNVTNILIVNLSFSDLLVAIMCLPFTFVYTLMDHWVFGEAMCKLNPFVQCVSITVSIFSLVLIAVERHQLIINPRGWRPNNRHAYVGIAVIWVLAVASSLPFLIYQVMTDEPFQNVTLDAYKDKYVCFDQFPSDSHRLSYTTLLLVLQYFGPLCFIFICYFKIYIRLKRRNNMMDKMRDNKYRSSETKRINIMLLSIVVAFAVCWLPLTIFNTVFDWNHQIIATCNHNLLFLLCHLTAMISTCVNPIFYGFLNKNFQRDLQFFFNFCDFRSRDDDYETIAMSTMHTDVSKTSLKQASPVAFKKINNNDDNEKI

As a reminder, the Ki is the equilibrium dissociation constant of an inhibitor or competing ligand from its target. Read a high Ki as weaker binding. Turning to `CC(=O)N[C@@H](CCCNC(=N)N)C(=O)NC[C@@H]1[C@H](C(=O)N[C@@H](CCCNC(=N)N)C(=O)N[C@@H](CC(C)C)C(=O)N[C@@H](CCCNC(=N)N)C(=O)N[C@@H](Cc2ccc(O)cc2)C(N)=O)C[C@H]1c1ccccc1` (Ac-R[X1]RLRY-NH2), the Ki is 230 nM.
Regarding `CC(=O)N[C@@H](CCCNC(=N)N)C(=O)NC[C@@H]1[C@H](C(=O)N[C@@H](CCCNC(=N)N)C(=O)NC[C@@H]2[C@H](C(=O)N[C@@H](CCCNC(=N)N)C(=O)N[C@@H](Cc3ccc(O)cc3)C(N)=O)C[C@H]2c2ccccc2)C[C@H]1c1ccccc1` (Ac-R[X1]R[X1]RY-NH2), the Ki was greater than 1000 nM.
The compound `CC(=O)N[C@@H](CCCNC(=N)N)C(=O)NC[C@H]1[C@@H](C(=O)N[C@@H](CCCNC(=N)N)C(=O)NC[C@H]2[C@@H](C(=O)N[C@@H](CCCNC(=N)N)C(=O)N[C@@H](Cc3ccc(O)cc3)C(N)=O)C[C@@H]2c2ccccc2)C[C@@H]1c1ccccc1` (Ac-R[X2]R[X2]RY-NH2) showed a Ki greater than 1050 nM.
Turning to `CC(=O)N[C@@H](CCCNC(=N)N)C(=O)NC[C@H]1[C@@H](C(=O)N[C@@H](CCCNC(=N)N)C(=O)N[C@@H](CC(C)C)C(=O)N[C@@H](CCCNC(=N)N)C(=O)N[C@@H](Cc2ccc(O)cc2)C(N)=O)C[C@@H]1c1ccccc1` (Ac-R[X2]RLRY-NH2), the Ki is greater than 3000 nM.
For the compound `CC(=O)N[C@@H](CCCNC(=N)N)C(=O)N[C@@H](Cc1ccc(O)cc1)C(=O)N[C@@H](CCCNC(=N)N)C(=O)N[C@@H](CC(C)C)C(=O)N[C@@H](CCCNC(=N)N)C(=O)N[C@@H](Cc1ccc(O)cc1)C(N)=O`, the Ki came out at 1180 nM.
